This note sets out measurements from PubChem BioAssay AID328 (DTP/NCI, 2004).

Several values for one entry are separate records, joined by “and”; a condition that tells them apart may be missing. Equal values may be shown once. Inconclusive results and toxic doses are left out.

This test relates to BDF1 mice, P388 leukemia ip, median survival T/C. The test can be described thus: NCI In Vivo Anticancer Drug Screen. Data for tumor model P388 Leukemia (intraperitoneal) in B6D2F1 (BDF1) mice. The settings on record: endpoint: median survival time, higher = longer survival. Put shortly:
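Compound-treated tumour-bearing mice were compared with vehicle-treated controls. Survival was recorded, and the value is the treated-group measurement divided by the control-group measurement (T/C).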

The mark [1] stands for this setting: dose: 100.0 mg/kg/injection, schedule: Q01DX009 (ip), vehicle: other.
Setting [2] is: dose: 100.0 mg/kg/injection, schedule: Q04DX003 (ip), vehicle: Klucel (hydroxypropylcellulose) (HPC).
[3] abbreviates: dose: 200.0 mg/kg/injection, schedule: Q04DX003 (ip), vehicle: Klucel (hydroxypropylcellulose) (HPC).
The mark [4] stands for this setting: dose: 400.0 mg/kg/injection, schedule: Q04DX003 (ip), vehicle: Klucel (hydroxypropylcellulose) (HPC).
Where [5] appears, read: dose: 100.0 mg/kg/injection, schedule: Q01DX009 (ip), vehicle: Klucel (hydroxypropylcellulose) (HPC).
The mark [6] stands for this setting: dose: 50.0 mg/kg/injection, schedule: Q01DX009 (ip), vehicle: Klucel (hydroxypropylcellulose) (HPC).
The mark [7] stands for this setting: dose: 100.0 mg/kg/injection, schedule: Q01DX009 (ip), vehicle: saline.
The mark [8] stands for this setting: dose: 200.0 mg/kg/injection, schedule: Q01DX009 (ip), vehicle: saline.
Setting [9] is: dose: 400.0 mg/kg/injection, schedule: Q01DX009 (ip), vehicle: saline.
The mark [10] stands for this setting: dose: 100.0 mg/kg/injection, schedule: Q01DX001 (ip), vehicle: saline with Tween-80.
[11] abbreviates: dose: 100.0 mg/kg/injection, schedule: Q01DX009 (ip), vehicle: saline with Tween-80.
Where [12] appears, read: dose: 50.0 mg/kg/injection, schedule: Q01DX009 (ip), vehicle: saline with Tween-80.
The mark [13] stands for this setting: dose: 50.0 mg/kg/injection, schedule: Q04DX003 (ip), vehicle: Klucel (hydroxypropylcellulose) (HPC).

On to `CCC1(O)C2CCCC1CCC2` (configuration not stated), for which the T/C by setting is: under setting [1], 100 % of control; under setting [2], 100 % of control; (dose: 200.0 mg/kg/injection, schedule: Q01DX009 (ip), vehicle: other) 109 % of control; under setting [3], 108 % of control; (dose: 400.0 mg/kg/injection, schedule: Q01DX009 (ip), vehicle: other) 113 % of control; under setting [4], 100 % of control.

For `COc1ccc(C)cc1CN1NC(=O)CC1=N`, the T/C reads like this: under setting [5], 100 % of control; under setting [2], 100 % of control; (dose: 200.0 mg/kg/injection, schedule: Q01DX009 (ip), vehicle: Klucel (hydroxypropylcellulose) (HPC)) 109 % of control; under setting [3], 122 % of control; (dose: 400.0 mg/kg/injection, schedule: Q01DX009 (ip), vehicle: Klucel (hydroxypropylcellulose) (HPC)) 100 % of control; under setting [4], 94 % of control.

Regarding `COc1ccc2c(c1)CCN1C2CCN2C(=O)CCC21` (configuration not stated), the T/C by setting is: (dose: 100.0 mg/kg/injection, schedule: Q01DX009 (ip), vehicle: saline sonified) 104 % of control; (dose: 200.0 mg/kg/injection, schedule: Q01DX009 (ip), vehicle: saline sonified) 113 % of control; (dose: 400.0 mg/kg/injection, schedule: Q01DX009 (ip), vehicle: saline sonified) 100 % of control.

For the molecule `CC(C)C1(C)NC(=O)NC1=O` (configuration not stated), the T/C reads like this: (dose: 100.0 mg/kg/injection, schedule: Q01DX001 (ip), vehicle: saline) 113 % of control; (dose: 200.0 mg/kg/injection, schedule: Q01DX001 (ip), vehicle: saline) 109 % of control; (dose: 400.0 mg/kg/injection, schedule: Q01DX001 (ip), vehicle: saline) 95 % of control.

As to `[NH-]CC[S-].[NH-]CC[S-].[NH-]CC[S-].[NH-]CC[S-].[Ni+2].[Ni+2].[Ni]`, the T/C (dose: 2.0 mg/kg/injection, schedule: Q01DX009 (ip), vehicle: saline) was 105 % of control; the T/C (dose: 3.12 mg/kg/injection, schedule: Q04DX003 (ip), vehicle: saline) is 100 % of control; the T/C (dose: 4.0 mg/kg/injection, schedule: Q01DX009 (ip), vehicle: saline) was 100 % of control; the T/C (dose: 8.0 mg/kg/injection, schedule: Q01DX009 (ip), vehicle: saline) was 98 % of control; the T/C (dose: 16.0 mg/kg/injection, schedule: Q01DX009 (ip), vehicle: saline) is 87 % of control and 117 % of control.

For `CC(Br)(C(Br)c1ccccc1)[N+](=O)[O-]` (configuration not stated), under setting [6], the T/C was 123 % of control.

`C[As](C)SC(CO)C1OC2OC(C)(C)OC2C1O` (configuration not stated): the T/C reads like this: (dose: 12.5 mg/kg/injection, schedule: Q01DX009 (ip), vehicle: saline + alcohol) 97 % of control; (dose: 25.0 mg/kg/injection, schedule: Q01DX009 (ip), vehicle: saline + alcohol) 100 % of control; (dose: 50.0 mg/kg/injection, schedule: Q01DX009 (ip), vehicle: saline + alcohol) 106 % of control.

For `CCCCC/C(C)=N\Nc1ccccn1`, the T/C (dose: 12.5 mg/kg/injection, schedule: Q01DX009 (ip), vehicle: Klucel (hydroxypropylcellulose) (HPC)) was 100 % of control; the T/C (dose: 25.0 mg/kg/injection, schedule: Q01DX009 (ip), vehicle: Klucel (hydroxypropylcellulose) (HPC)) is 113 % of control; the T/C under setting [6] is 104 % of control and 113 % of control; the T/C under setting [5] is 118 % of control.

As to `O=c1ccc2cc(OC3OC(CO)C(O)C(O)C3O)c(O)cc2o1` (configuration not stated), the T/C runs as follows: under setting [7], 95 % of control; (dose: 100.0 mg/kg/injection, schedule: Q04DX003 (ip), vehicle: alcohol) 105 % of control; under setting [8], 104 % of control; (dose: 200.0 mg/kg/injection, schedule: Q04DX003 (ip), vehicle: alcohol) 100 % of control; under setting [9], 109 % of control; (dose: 400.0 mg/kg/injection, schedule: Q04DX003 (ip), vehicle: alcohol) 110 % of control.

On to `CCNC1=C(N2CC2)C(=O)C(NCC)=C(N2CC2)C1=O`, for which the T/C is, setting by setting: (dose: 0.37 mg/kg/injection, schedule: Q01DX009 (ip), vehicle: saline) 156 % of control and 175 % of control; (dose: 0.75 mg/kg/injection, schedule: Q01DX009 (ip), vehicle: saline) 193 % of control and 203 % of control; (dose: 1.5 mg/kg/injection, schedule: Q01DX009 (ip), vehicle: saline) 228 % of control and 178 % of control.

Consider `Oc1cccc(O)c1`, for which the T/C was 95 % of control (dose: 50.0 mg/kg/injection, schedule: Q01DX010 (ip), vehicle: saline) and 91 % of control (dose: 100.0 mg/kg/injection, schedule: Q01DX010 (ip), vehicle: saline).

For the molecule `FC(F)(F)c1nc(Cl)nc(Cl)c1Cl`, the T/C is 105 % of control (dose: 3.12 mg/kg/injection, schedule: Q01DX005 (ip), vehicle: saline); 100 % of control (dose: 6.25 mg/kg/injection, schedule: Q01DX005 (ip), vehicle: saline); 110 % of control (dose: 12.5 mg/kg/injection, schedule: Q01DX005 (ip), vehicle: saline).

With `CCCCn1c2nc(=O)[nH]c(=O)c-2[n+]([O-])c2ccccc21`, the T/C under setting [10] is 108 % of control.

With `CCOC(=O)CCN1CCOCC1`, the T/C is 100 % of control under setting [7]; 95 % of control (dose: 100.0 mg/kg/injection, schedule: Q04DX003 (ip), vehicle: saline); 100 % of control under setting [8]; 100 % of control (dose: 200.0 mg/kg/injection, schedule: Q04DX003 (ip), vehicle: saline); 100 % of control under setting [9]; 108 % of control (dose: 400.0 mg/kg/injection, schedule: Q04DX003 (ip), vehicle: saline).

For `CCN1c2ccccc2CC(C#N)(CCN(C)C)c2ccccc21` (configuration not stated), the T/C under setting [11] is 100 % of control.

`CCCN(CCC)CCSC(=S)NCCOC`: the T/C was 100 % of control under setting [12] and 113 % of control under setting [11].

On to `CN(C)c1ccc(C=O)cc1[N+](=O)[O-]`, for which the T/C under setting [13] is 113 % of control, the T/C under setting [2] is 113 % of control and the T/C under setting [3] is 104 % of control.

`O=C(Cl)c1cc2ccccc2o1`: the T/C was 91 % of control under setting [10]; 108 % of control (dose: 200.0 mg/kg/injection, schedule: Q01DX001 (ip), vehicle: saline with Tween-80); 91 % of control (dose: 400.0 mg/kg/injection, schedule: Q01DX001 (ip), vehicle: saline with Tween-80).

As to `CN(C)CNc1ncnc2onc(-c3ccccc3)c12`, the T/C (dose: 50.0 mg/kg/injection, schedule: Q01DX009 (ip), vehicle: other) was 100 % of control and the T/C under setting [1] is 102 % of control.

For `CCN(CC)c1oc2ccc3ccccc3c2c(=O)c1Cl`, the T/C under setting [12] was 97 % of control; the T/C under setting [11] is 94 % of control; the T/C (dose: 200.0 mg/kg/injection, schedule: Q01DX009 (ip), vehicle: saline with Tween-80) is 92 % of control.

As for `CNC1=CC(=O)C1(F)F`, the T/C was 100 % of control (dose: 25.0 mg/kg/injection, schedule: Q01DX001 (ip), vehicle: saline sonified); 109 % of control (dose: 50.0 mg/kg/injection, schedule: Q01DX001 (ip), vehicle: saline sonified); 100 % of control (dose: 100.0 mg/kg/injection, schedule: Q01DX001 (ip), vehicle: saline sonified).

`CCN1CCN(Cc2ccccc2)C(CCl)C1` (configuration not stated): the T/C runs as follows: (dose: 12.5 mg/kg/injection, schedule: Q04DX003 (ip), vehicle: Klucel (hydroxypropylcellulose) (HPC)) 100 % of control; (dose: 25.0 mg/kg/injection, schedule: Q04DX003 (ip), vehicle: Klucel (hydroxypropylcellulose) (HPC)) 100 % of control; under setting [13], 100 % of control.
